Experimental data published in ChEMBL document CHEMBL1773037, “Evaluation of superior BACE1 cleavage sequences containing unnatural amino acids” (Bioorg Med Chem, 2011).
Starred links: 1 amine or outer side, 2 acyl side, 3 side chain; linkers in the order of their positions; H or OH if unused. Non-standard residues stand in square brackets, D forms with d. Residues, ends and D or L forms follow the SMILES beside them. X1 = O=C(O)[C@@H]1Cc2ccccc2CN1[C@H](N[*:1])C(=O)[*:2]; 2Thi = N[C@@H](Cc1cccs1)C(=O)O; Cha = N[C@@H](CC1CCCCC1)C(=O)O; Phg = N[C@H](C(=O)O)c1ccccc1; Tle = CC(C)(C)[C@H](N)C(=O)O; Nva = CCC[C@H](N)C(=O)O; Abu = CC[C@H](N)C(=O)O

target: Beta-secretase 1 (Homo sapiens) (UniProt P56817); test: Activity of recombinant BACE assessed as retention time of substrate by HPLC method
Sequence (P56817 whole entry): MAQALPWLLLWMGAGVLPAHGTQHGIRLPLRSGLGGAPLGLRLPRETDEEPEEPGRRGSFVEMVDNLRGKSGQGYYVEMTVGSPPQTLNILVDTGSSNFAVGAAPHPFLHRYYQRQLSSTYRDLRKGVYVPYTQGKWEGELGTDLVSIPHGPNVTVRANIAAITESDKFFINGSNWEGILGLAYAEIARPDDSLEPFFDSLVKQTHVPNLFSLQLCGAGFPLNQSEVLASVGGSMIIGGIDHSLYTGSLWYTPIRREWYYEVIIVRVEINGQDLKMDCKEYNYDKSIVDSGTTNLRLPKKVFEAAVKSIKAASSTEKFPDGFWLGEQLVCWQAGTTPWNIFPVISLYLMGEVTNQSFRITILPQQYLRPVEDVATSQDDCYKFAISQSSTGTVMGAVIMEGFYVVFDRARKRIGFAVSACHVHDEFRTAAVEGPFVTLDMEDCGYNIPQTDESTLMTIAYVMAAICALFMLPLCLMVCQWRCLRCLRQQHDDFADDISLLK

retention time	SMILES
0.469 h	CC[C@H](C)[C@H](N)C(=O)N[C@@H](CO)C(=O)N[C@@H](CCC(N)=O)C(=O)N[C@H](C(=O)N[C@@H](CC(N)=O)C(=O)N[C@@H](CC(C)C)C(=O)N[C@@H](CC(=O)O)C(=O)N[C@@H](C)C(=O)N[C@@H](CCC(=O)O)C(=O)N[C@@H](Cc1ccccc1)C(=O)N[C@@H](CCCNC(=N)N)C(=O)N[C@@H](Cc1cnc[nH]1)C(N)=O)C(C)C (H-ISQVNLDAEFRH-NH2)
0.528 h	CC[C@H](NC(=O)[C@H](CO)NC(=O)[C@@H](N)[C@@H](C)CC)C(=O)N[C@H](C(=O)N[C@@H](CC(N)=O)C(=O)N[C@@H](CC(C)C)C(=O)N[C@@H](CC(=O)O)C(=O)N[C@@H](C)C(=O)N[C@@H](CCC(=O)O)C(=O)N[C@@H](Cc1ccccc1)C(=O)N[C@@H](CCCNC(=N)N)C(=O)N[C@@H](Cc1cnc[nH]1)C(N)=O)C(C)C (H-IS[Abu]VNLDAEFRH-NH2)
0.689 h	CC[C@H](C)[C@H](N)C(=O)N[C@@H](CO)C(=O)N[C@@H](CC1CCCCC1)C(=O)N[C@H](C(=O)N[C@@H](CC(N)=O)C(=O)N[C@@H](CC(C)C)C(=O)N[C@@H](CC(=O)O)C(=O)N[C@@H](C)C(=O)N[C@@H](CCC(=O)O)C(=O)N[C@@H](Cc1ccccc1)C(=O)N[C@@H](CCCNC(=N)N)C(=O)N[C@@H](Cc1cnc[nH]1)C(N)=O)C(C)C (H-IS[Cha]VNLDAEFRH-NH2)
0.567 h	CCC[C@H](NC(=O)[C@H](CO)NC(=O)[C@@H](N)[C@@H](C)CC)C(=O)N[C@H](C(=O)N[C@@H](CC(N)=O)C(=O)N[C@@H](CC(C)C)C(=O)N[C@@H](CC(=O)O)C(=O)N[C@@H](C)C(=O)N[C@@H](CCC(=O)O)C(=O)N[C@@H](Cc1ccccc1)C(=O)N[C@@H](CCCNC(=N)N)C(=O)N[C@@H](Cc1cnc[nH]1)C(N)=O)C(C)C (H-IS[Nva]VNLDAEFRH-NH2)
0.588 h	CC[C@H](C)[C@H](N)C(=O)N[C@@H](CO)C(=O)N[C@H](C(=O)N[C@H](C(=O)N[C@@H](CC(N)=O)C(=O)N[C@@H](CC(C)C)C(=O)N[C@@H](CC(=O)O)C(=O)N[C@@H](C)C(=O)N[C@@H](CCC(=O)O)C(=O)N[C@@H](Cc1ccccc1)C(=O)N[C@@H](CCCNC(=N)N)C(=O)N[C@@H](Cc1cnc[nH]1)C(N)=O)C(C)C)C(C)(C)C (H-IS[Tle]VNLDAEFRH-NH2)

The next lines start with the compound.

SMILES	retention time
CC[C@H](C)[C@H](N)C(=O)N[C@@H](CO)C(=O)N[C@@H](CCC(=O)O)C(=O)N[C@H](C(=O)N[C@@H](CC(N)=O)C(=O)N[C@@H](CC(C)C)C(=O)N[C@@H](CC(=O)O)C(=O)N[C@@H](C)C(=O)N[C@@H](CCC(=O)O)C(=O)N[C@@H](Cc1ccccc1)C(=O)N[C@@H](CCCNC(=N)N)C(=O)N[C@@H](Cc1cnc[nH]1)C(N)=O)c1ccccc1 (H-ISE[Phg]NLDAEFRH-NH2)	0.514 h
CC[C@H](C)[C@H](N)C(=O)N[C@@H](CO)C(=O)N[C@@H](CCC(=O)O)C(=O)N[C@H](C(=O)N[C@@H](CC(N)=O)C(=O)N[C@@H](CC(C)C)C(=O)N[C@@H](CC(=O)O)C(=O)N[C@@H](C)C(=O)N[C@@H](CCC(=O)O)C(=O)N[C@@H](Cc1ccccc1)C(=O)N[C@@H](CCCNC(=N)N)C(=O)N[C@@H](Cc1cnc[nH]1)C(N)=O)C(C)(C)C (H-ISE[Tle]NLDAEFRH-NH2)	0.517 h
CC[C@H](C)[C@H](N)C(=O)N[C@@H](CO)C(=O)N[C@@H](CCC(=O)O)C(=O)N[C@H](C(=O)N[C@@H](CC(N)=O)C(=O)N[C@@H](CC(C)C)C(=O)N[C@@H](CC(=O)O)C(=O)N[C@@H](C)C(=O)N[C@@H](CCC(=O)O)C(=O)N[C@@H](Cc1ccccc1)C(=O)N[C@@H](CCCNC(=N)N)C(=O)N[C@@H](Cc1cnc[nH]1)C(N)=O)N1Cc2ccccc2C[C@H]1C(=O)O (H-ISE[X1]NLDAEFRH-NH2)	0.599 h
CC[C@H](C)[C@H](N)C(=O)N[C@@H](CO)C(=O)N[C@@H](Cc1cccs1)C(=O)N[C@H](C(=O)N[C@@H](CC(N)=O)C(=O)N[C@@H](CC(C)C)C(=O)N[C@@H](CC(=O)O)C(=O)N[C@@H](C)C(=O)N[C@@H](CCC(=O)O)C(=O)N[C@@H](Cc1ccccc1)C(=O)N[C@@H](CCCNC(=N)N)C(=O)N[C@@H](Cc1cnc[nH]1)C(N)=O)C(C)C (H-IS[2Thi]VNLDAEFRH-NH2)	0.591 h
